Tested on: parasites (ring stage, in human red blood cell culture)
Assay: Parasite LDH growth assay (antiparasite potency, Parasite Assay)
Type: cell-based, Plasmodium falciparum
Conditions: 0.7% rings, 2% haematocrit, 72 hours at 37° C., LDH readout of parasite growth
Description: Assessing Antiparasite Potency in a Parasite LDH Growth Assay (Parasite Assay)
The parasite stock was maintained at 4% haematocrit in RPMI-Hepes media buffered with sodium bicarbonate and supplemented with 5% heat inactivated human serum and 0.5% albumax.
On the day of assay set up, a blood smear of the parasite culture was Giemsa stained and counted. The parasitemia was adjusted to 0.7% rings and the haematocrit was diluted to 2% in RPMI-Hepes media buffered with sodium bicarbonate and supplemented with 5% heat inactivated human serum and 0.5% albumax. 30 ul of diluted parasites are then added into 10 ul of media+compound in pre-prepared Greiner TC assay plates. Parasite assay plates were placed in gassed humidified boxes in single layer and allowed to incubate at 37° C. for 72 hours. After 72 hours growth, assay plates are sealed with parafilm and frozen flat, in single file at −80° C. overnight. On the following day, assay plates are allowed to thaw at room temperature for 4 hours to which an LDH assay is performed to measure parasite growth.

| Compound | EC50 [nM] |
| --- | --- |
| CC1(C)CC(=O)N([C@@H]2CCOc3ccc(C(=O)N[C@H]4CC(C)(C)Oc5ccccc54)cc32)C(=N)N1 [Example 12A, (R)-N-((S)-2,2-dimethylchroman-4-yl)-4-(2-imino-4,4-dimethyl-6-oxotetrahydropyrimidin-1(2H)-yl)chromane-6-carboxamide] | 1.1 |

Same assay, conditions: Plasmodium falciparum, Erythrocyte, 72 h, 0.7% rings, 2% haematocrit, 72 hours at 37° C., LDH readout of parasite growth

| Compound | EC50 [nM] |
| --- | --- |
| CCC1(CC)CC(=O)N([C@@H]2CCOc3ccc(C(=O)N[C@H]4CC(C)(C)Oc5ccc(F)cc54)cc32)C(=N)N1 [Example 7A, (R)-4-(4,4-diethyl-2-imino-6-oxotetrahydropyrimidin-1(2H)-yl)-N-((S)-6-fluoro-2,2-dimethylchroman-4-yl)chromane-6-carboxamide] | 0.4 |
| CCC1(CC)CC(=O)N([C@@H]2CCOc3ccc(C(=O)N[C@@H]4CC(C)(C)Oc5ccc(F)cc54)cc32)C(=N)N1 [Example 7B, (R)-4-(4,4-diethyl-2-imino-6-oxotetrahydropyrimidin-1(2H)-yl)-N-((R)-6-fluoro-2,2-dimethylchroman-4-yl)chromane-6-carboxamide] | 19 |
| CC(C)[C@]1(C)CC(=O)N([C@@H]2CCOc3ccc(C(=O)N[C@H]4CC(C)(C)Oc5ccccc54)cc32)C(=N)N1 [Example 10A, (R)-N-((S)-2,2-dimethylchroman-4-yl)-4-((S)-2-imino-4-isopropyl-4-methyl-6-oxotetrahydropyrimidin-1(2H)-yl)chromane-6-carboxamide] | 0.5 |
| CC(C)[C@]1(C)CC(=O)N([C@@H]2CCOc3ccc(C(=O)N[C@@H]4c5ccccc5OC(C)(C)C4O)cc32)C(=N)N1 (stereo partly drawn) [Example 11B, (4R)-N-(3-hydroxy-2,2-dimethylchroman-4-yl)-4-((S)-2-imino-4-isopropyl-4-methyl-6-oxotetrahydropyrimidin-1(2H)-yl)chromane-6-carboxamide] | 84 |
| CCC1(CC)CC(=O)N([C@@H]2CCOc3ccc(C(=O)N[C@H]4CC(C)(C)Oc5ccc(Br)cc54)cc32)C(=N)N1 [Example 14A, (R)-N-((S)-6-bromo-2,2-dimethylchroman-4-yl)-4-(4,4-diethyl-2-imino-6-oxotetrahydropyrimidin-1(2H)-yl)chromane-6-carboxamide] | 1 |
| CCC1(CC)CC(=O)N([C@@H]2CCOc3ccc(C(=O)N[C@@H]4c5cc(Br)ccc5OC(C)(C)[C@H]4O)cc32)C(=N)N1 [Example 15A, (R)-N-((3S,4R)-6-bromo-3-hydroxy-2,2-dimethylchroman-4-yl)-4-(4,4-diethyl-2-imino-6-oxotetrahydropyrimidin-1(2H)-yl)chromane-6-carboxamide] | 0.3 |
| CCC1(CC)CC(=O)N([C@@H]2CC(COC)Oc3ccc(C(=O)N[C@@H]4c5ccccc5OC(C)(C)[C@H]4O)cc32)C(=N)N1 (stereo partly drawn) [Example 18A, (4R)-4-(4,4-diethyl-2-imino-6-oxotetrahydropyrimidin-1(2H)-yl)-N-((3S,4R)-3-hydroxy-2,2-dimethylchroman-4-yl)-2-(methoxymethyl)chromane-6-carboxamide] | 0.8 |
| CCC1(CC)CC(=O)N([C@@H]2CCOc3ccc(C(=O)N[C@@H]4c5cc(Cl)ccc5OC(C)(C)[C@H]4O)cc32)C(=N)N1 [Example 19A, (R)-N-((3S,4R)-6-chloro-3-hydroxy-2,2-dimethylchroman-4-yl)-4-(4,4-diethyl-2-imino-6-oxotetrahydropyrimidin-1(2H)-yl)chromane-6-carboxamide] | 0.3 |
| CCC1(CC)CC(=O)N([C@@H]2CCOc3ccc(C(=O)N[C@@H]4c5cc(C#N)ccc5OC(C)(C)[C@H]4O)cc32)C(=N)N1 [Example 20A, (R)-N-((3S,4R)-6-cyano-3-hydroxy-2,2-dimethylchroman-4-yl)-4-(4,4-diethyl-2-imino-6-oxotetrahydropyrimidin-1(2H)-yl)chromane-6-carboxamide] | 0.8 |
| CCC1(CC)CC(=O)N([C@@H]2CCOc3ccc(C(=O)N[C@H]4CC(C)(C)Oc5ccc(C#N)cc54)cc32)C(=N)N1 [Example 21A, (R)-N-((S)-6-cyano-2,2-dimethylchroman-4-yl)-4-(4,4-diethyl-2-imino-6-oxotetrahydropyrimidin-1(2H)-yl)chromane-6-carboxamide] | 0.8 |
| CCC1(CC)CC(=O)N([C@@H]2CC3(COC3)Oc3ccc(C(=O)N[C@H]4CC(C)(C)Oc5ccccc54)cc32)C(=N)N1 [Example 22A, (R)-4-(4,4-diethyl-2-imino-6-oxotetrahydropyrimidin-1(2H)-yl)-N-((S)-2,2-dimethylchroman-4-yl)spiro[chromane-2,3′-oxetane]-6-carboxamide] | 0.7 |
| CCC1(CC)CC(=O)N([C@@H]2CC3(COC3)Oc3ccc(C(=O)N[C@@H]4c5ccccc5C[C@H]4O)cc32)C(=N)N1 [Example 23A, (R)-4-(4,4-diethyl-2-imino-6-oxotetrahydropyrimidin-1(2H)-yl)-N-((1R,2R)-2-hydroxy-2,3-dihydro-1H-inden-1-yl)spiro[chromane-2,3′-oxetane]-6-carboxamide] | 5 |
| CCC1(CC)CC(=O)N([C@@H]2CC3(COC3)Oc3ccc(C(=O)N[C@@H]4c5ccccc5OC(C)(C)[C@H]4O)cc32)C(=N)N1 [Example 24A, (R)-4-(4,4-diethyl-2-imino-6-oxotetrahydropyrimidin-1(2H)-yl)-N-((3S,4R)-3-hydroxy-2,2-dimethylchroman-4-yl)spiro[chromane-2,3′-oxetane]-6-carboxamide] | 9.3 |
| CCC1(CC)CC(=O)N([C@@H]2CCOc3ccc(C(=O)N[C@@H]4c5cc(F)ccc5OC(C)(C)[C@H]4O)cc32)C(=N)N1 [Example 25A, (R)-4-(4,4-diethyl-2-imino-6-oxotetrahydropyrimidin-1(2H)-yl)-N-((3S,4R)-6-fluoro-3-hydroxy-2,2-dimethylchroman-4-yl)chromane-6-carboxamide] | 0.5 |
| CCC1(CC)CC(=O)N([C@@H]2CCOc3ccc(C(=O)N[C@H]4c5cc(F)ccc5OC(C)(C)[C@@H]4O)cc32)C(=N)N1 [Example 25B, (R)-4-(4,4-diethyl-2-imino-6-oxotetrahydropyrimidin-1(2H)-yl)-N-((3R,4S)-6-fluoro-3-hydroxy-2,2-dimethylchroman-4-yl)chromane-6-carboxamide] | 59.8 |
| CCC1(CC)CC(=O)N([C@@H]2CCOc3c(Cl)cc(C(=O)N[C@H]4CC(C)(C)Oc5ccccc54)cc32)C(=N)N1 [Example 26A, (R)-8-chloro-4-(4,4-diethyl-2-imino-6-oxotetrahydropyrimidin-1(2H)-yl)-N-((S)-2,2-dimethylchroman-4-yl)chromane-6-carboxamide] | 1.3 |
| CCC1(CC)CC(=O)N([C@@H]2CCOc3c(Cl)cc(C(=O)N[C@@H]4CC(C)(C)Oc5ccccc54)cc32)C(=N)N1 [Example 26B, (R)-8-chloro-4-(4,4-diethyl-2-imino-6-oxotetrahydropyrimidin-1(2H)-yl)-N-((R)-2,2-dimethylchroman-4-yl)chromane-6-carboxamide] | 180 |
| CCC1(CC)CC(=O)N([C@@H]2CCOc3c(C#N)cc(C(=O)N[C@H]4CC(C)(C)Oc5ccccc54)cc32)C(=N)N1 [Example 27A, (R)-8-cyano-4-(4,4-diethyl-2-imino-6-oxotetrahydropyrimidin-1yl)-N-((S)-2,2-dimethylchroman-4-yl)chromane-6-carboxamide] | 1.3 |
